Molecules are shown by their SMILES. pIC50: −log10 of the molar value.

29 compounds from patent US6683095B2, “CDK inhibitors having 3-hydroxychromen-4-one structure” (LG Life Sciences Ltd., priority 2000, dated 2004) can be followed below.

The target of one experiment is T1, CDK2/cyclin A (Homo sapiens, UniProt P24941).
T1 construct: His; made in house; host or cells: insect cell (baculovirus co-infection)
Put plainly: Inhibitory activity against CDK2 (CDK2/cyclin A kinase assay, GST-Rb substrate, 32P-ATP). The experiment is classed as biochemical. Particulars: 100 μM ATP, 30° C., 30 minutes. Here is the method:
The inhibitory activity against CDK2 was measured by referring to Kitagawa, M. et al., Oncogene 9; 2549, 1994 and that against CDK4 was measured by referring to Carlson, B. A. et al., Cancer Research 56; 2473, 1996.
The part of amino acid positions 780 to 928 of C-terminus of human Rb protein was isolated, N-terminus thereof was labelled with GST protein, large amount thereof was expressed in bacteria and purified to be used as the substrate for the enzyme.
(§1) The activities of CDK2/cyclin A and CDK4/cyclin D1 were determined as follows. About 100 ng of enzyme was reacted in a total 100 μl of 20 mM Tris(pH 8.0), 100 mM NaCl, 10 mM MgCl2 buffer solution containing 20 μg of GST-Rb protein, 100 μM of ATP and 5 μCi of p^32-γ-ATP at 30° C. for 30 minutes. Then, EDTA was added to a concentration of 20 mM to stop the enzyme reaction. Subsequently, 30 μl of 50% glutathione bead (purchased from Pharmacia) was added to attach GST-Rb to the bead, which was washed three times with 20 mM Tris(pH 8.0), 100 mM NaCl, 10 mM EDTA solution, and then scintillation counting was carried out. To analyze the inhibitory activity of the compound, the inhibitor having a proper concentration was added to the enzyme reaction solution, and then the enzyme activity was measured according to the above method.
The inhibitory activity against CDK2 and CDK4 of the compound of formula (1) according to the present invention was represented as IC50 value (see the following Table 1).

The target in a further experiment is T2, CDK4/cyclin D1 (Homo sapiens, UniProt P11802).
T2 construct: GST; made in house; host or cells: insect cell
Put plainly: Inhibitory activity against CDK4 (CDK4/cyclin D1 kinase assay, GST-Rb substrate, 32P-ATP). The experiment is classed as biochemical. As to conditions: 100 μM ATP, 30° C., 30 minutes. Here is the method:
as §1

T2 sequence (P11802 whole entry): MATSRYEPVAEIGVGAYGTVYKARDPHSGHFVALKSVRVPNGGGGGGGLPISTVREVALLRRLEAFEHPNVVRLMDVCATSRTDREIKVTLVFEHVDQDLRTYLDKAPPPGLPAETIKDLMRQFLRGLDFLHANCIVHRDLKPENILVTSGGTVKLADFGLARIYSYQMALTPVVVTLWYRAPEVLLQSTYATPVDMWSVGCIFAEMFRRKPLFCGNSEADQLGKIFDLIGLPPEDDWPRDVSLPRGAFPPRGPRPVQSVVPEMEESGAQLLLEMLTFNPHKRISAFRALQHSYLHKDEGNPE
T2 sequence (P24385 whole entry partner): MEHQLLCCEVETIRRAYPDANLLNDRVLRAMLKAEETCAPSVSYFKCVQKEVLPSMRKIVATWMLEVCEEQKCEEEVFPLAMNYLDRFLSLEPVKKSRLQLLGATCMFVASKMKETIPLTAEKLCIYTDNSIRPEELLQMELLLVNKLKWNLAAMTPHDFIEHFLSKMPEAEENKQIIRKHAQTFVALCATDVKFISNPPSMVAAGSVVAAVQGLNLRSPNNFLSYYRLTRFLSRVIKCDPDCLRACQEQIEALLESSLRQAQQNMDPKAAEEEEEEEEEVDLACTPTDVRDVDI

Take `Cc1cc(N)c2oc(-c3ccc(O)c(N)c3)c(O)c(=O)c2c1` [Compound 1, 8-amino-2-(3-amino-4-hydroxyphenyl)-3-hydroxy-6-methyl-4H-chromen-4-one]: the figures for the pIC50 on CDK2/cyclin A and on CDK4/cyclin D1 were 5.85 and 4.70, respectively.
For `Cc1cc([N+](=O)[O-])c2oc(-c3ccc(O)c([N+](=O)[O-])c3)c(O)c(=O)c2c1` [Compound 2, 2-(4-hydroxy-3-nitrophenyl)-3-hydroxy-6-methyl-8-nitro-4H-chromen-4-one] the same measures were 5.35 and 5.11.
For `CC(=O)Nc1cc(C)cc2c(=O)c(O)c(-c3ccc(O)c([N+](=O)[O-])c3)oc12` [Compound 3, N-[2-(4-hydroxy-3-nitrophenyl)-3-hydroxy-6-methyl-4-oxo-4H-chromen-8-yl]acetamide], in that order: 5.22 and 5.41.
In the case of `Cc1cc(N)c2oc(-c3ccc(O)cc3)c(O)c(=O)c2c1` [Compound 4, 8-amino-2-(4-hydroxyphenyl)-3-hydroxy-6-methyl-4H-chromen-4-one], the pIC50 on CDK2/cyclin A and against CDK4/cyclin D1 was 5.68 in each case.
Consider `CC(=O)Nc1cc(-c2oc3ccc(C)cc3c(=O)c2O)ccc1O` [Compound 6, N-[2-hydroxy-5-(3-hydroxy-6-methyl-4-oxo-4H-chromen-2-yl)phenyl]acetamide], for which the negative-log IC50 (pIC50) against CDK2/cyclin A was 4.52; at CDK4/cyclin D1 it was 5.00.
For `CC(=O)Nc1cc(C)cc2c(=O)c(O)c(-c3ccc(O)c(NC(C)C)c3)oc12` [Compound 7A, N-{2-[4-hydroxy-3-(isopropylamino)phenyl]-3-hydroxy-6-methyl-4-oxo-4H-chromen-8-yl}acetamide] the same measures were 4.74 and 4.33.
As to `CC(=O)Nc1cc(C)cc2c(=O)c(O)c(-c3ccc(O)c(N)c3)oc12` [Compound 7B, N-[2-(3-amino-4-hydroxyphenyl)-3-hydroxy-6-methyl-4-oxo-4H-chromen-8-yl]acetamide], the pIC50 at CDK2/cyclin A is 5.52; on CDK4/cyclin D1, 4.77.
For `Cc1cc(N)c2oc(-c3ccc(O)c(F)c3)c(O)c(=O)c2c1` [Compound 9, 8-amino-2-(3-fluoro-4-hydroxyphenyl)-3-hydroxy-6-methyl-4H-chromen-4-one], in that order: 4.85 and 4.80.
For `Cc1cc(NC(N)=O)c2oc(-c3ccc(O)c(NC(N)=O)c3)c(O)c(=O)c2c1` [Compound 10, N-{5-[8-(ureido)-3-hydroxy-6-methyl-4-oxo-4H-chromen-2-yl]-2-hydroxyphenyl}urea], in that order: 4.52 and 4.00.
As to `Cc1cc(N)c2oc(-c3ccc(N)cc3)c(O)c(=O)c2c1` [Compound 11, 8-amino-2-(4-aminophenyl)-3-hydroxy-6-methyl-4H-chromen-4-one], the pIC50 on CDK2/cyclin A was 3.82; against CDK4/cyclin D1, 4.30.
For `Cc1cc(N)c2oc(-c3cccc(O)c3)c(O)c(=O)c2c1` [Compound 12, 8-amino-3-hydroxy-2-(3-hydroxyphenyl)-6-methyl-4H-chromen-4-one], in that order: 5.70 and 5.68.
For `Cc1ccc2oc(-c3ccc(O)c(O)c3O)c(O)c(=O)c2c1` [Compound 13, 3-hydroxy-6-methyl-2-(2,3,4-trihydroxyphenyl)-4H-chromen-4-one], in that order: 3.00 and 4.30.
In the case of `Cc1ccc2oc(-c3ccc(O)c(O)c3Br)c(O)c(=O)c2c1` [Compound 14, 2-(2-bromo-3,4-dihydroxyphenyl)-3-hydroxy-6-methyl-4H-chromen-4-one], the pIC50 is 3.30 against CDK2/cyclin A and 4.96 against CDK4/cyclin D1.
Regarding `Cc1cc(N2CCCS2(=O)=O)c2oc(-c3ccc(O)c(F)c3)c(O)c(=O)c2c1` [Compound 16, 2-[2-(3-fluoro-4-hydroxyphenyl)-3-hydroxy-6-methyl-4-oxo-4H-chromen-8-yl]-1λ^6-isothiazolidin-1,1-dione], the pIC50 against CDK2/cyclin A was 6.35; against CDK4/cyclin D1, 5.96.
For `Cc1cc(N2CCCS2(=O)=O)c2oc(-c3ccc(O)c(Br)c3)c(O)c(=O)c2c1` [Compound 18, 2-[2-(3-bromo-4-hydroxyphenyl)-3-hydroxy-6-methyl-4-oxo-4H-chromen-8-yl]-1λ^6-isothiazolidin-1,1-dione] the same measures were 7.12 and 6.68.
For `Cc1cc(N2CCCS2(=O)=O)c2oc(-c3ccc(O)c(C#N)c3)c(O)c(=O)c2c1` [Compound 19, 5-[8-(1,1-dioxo-1λ^6-isothiazolidin-2-yl)-3-hydroxy-6-methyl-4-oxo-4H-chromen-2-yl]-2-hydroxybenzonitrile], in that order: 5.85 and 6.10.
With `Cc1cc(N2CCCS2(=O)=O)c2oc(-c3ccc(O)cc3O)c(O)c(=O)c2c1` [Compound 20, 2-[2-(2,4-dihydroxyphenyl)-3-hydroxy-6-methyl-4-oxo-4H-chromen-8-yl]-1λ^6-isothiazolidin-1,1-dione], the figures for the pIC50 on CDK2/cyclin A and at CDK4/cyclin D1 were 3.00 and 3.30, respectively.
Consider `Cc1cc(N2CCCS2(=O)=O)c2oc(-c3ccc(F)c(Cl)c3)c(O)c(=O)c2c1` [Compound 21, 2-[2-(3-chloro-4-fluorophenyl)-3-hydroxy-6-methyl-4-oxo-4H-chromen-8-yl]-1λ^6-isothiazolidin-1,1-dione], for which the pIC50 at CDK2/cyclin A was 4.89; at CDK4/cyclin D1 it was 4.62.
For `Cc1cc(N2CCCS2(=O)=O)c2oc(-c3ccc(O)c(C)c3)c(O)c(=O)c2c1` [Compound 22, 2-[3-hydroxy-2-(4-hydroxy-3-methylphenyl)-6-methyl-4-oxo-4H-chromen-8-yl]-1λ^6-isothiazolidin-1,1-dione] the same measures were 6.15 and 5.70.
For `Cc1cc(N2CCCS2(=O)=O)c2oc(-c3ccc(O)c(CO)c3)c(O)c(=O)c2c1` [Compound 23, 2-{3-hydroxy-2-[4-hydroxy-3-(hydroxymethyl)phenyl]-6-methyl-4-oxo-4H-chromen-8-yl}-1λ^6-isothiazolidin-1,1-dione], in that order: 5.82 and 5.30.
For `Cc1cc(N2CCCS2(=O)=O)c2oc(-c3ccc(O)c(C(F)(F)F)c3)c(O)c(=O)c2c1` [Compound 24, 2-[3-hydroxy-2-(4-hydroxy-3-trifluoromethylphenyl)-6-methyl-4-oxo-4H-chromen-8-yl]-1λ^6-isothiazolidin-1,1-dione], in that order: 6.60 and 5.68.
With `Nc1cc(N2CCCS2(=O)=O)c2oc(-c3ccc(O)cc3)c(O)c(=O)c2c1` [Compound 25, 2-[6-amino-3-hydroxy-2-(4-hydroxyphenyl)-4-oxo-4H-chromen-8-yl]-1λ^6-isothiazolidin-1,1-dione], the pIC50 is 7.06 against CDK2/cyclin A and 5.92 at CDK4/cyclin D1.
For `CN(C)c1cc(N2CCCS2(=O)=O)c2oc(-c3ccc(O)cc3)c(O)c(=O)c2c1` [Compound 26, 2-[6-(dimethylamino)-3-hydroxy-2-(4-hydroxyphenyl)-4-oxo-4H-chromen-8-y]-1λ^6-isothiazolidin-1,1-dione] the same measures were 6.66 and 6.15.
For `CCN(CC)c1cc(N2CCCS2(=O)=O)c2oc(-c3ccc(O)cc3)c(O)c(=O)c2c1` [Compound 27, 2-[6-(diethylamino)-3-hydroxy-2-(4-hydroxyphenyl)-4-oxo-4H-chromen-8-yl]-1λ^6-isothiazolidin-1,1-dione], in that order: 5.05 and 5.15.
As for `O=c1c(O)c(-c2ccc(O)cc2)oc2c(N3CCCS3(=O)=O)cc(NCc3ccccc3)cc12` [Compound 28, 2-[6-(benzylamino)-3-hydroxy-2-(4-hydroxyphenyl)-4-oxo-4H-chromen-8-yl]-1λ^6-isothiazolidin-1,1-dione], the pIC50 at CDK2/cyclin A is 5.65; at CDK4/cyclin D1 it was 5.49.
Consider `O=c1c(O)c(-c2ccc(O)cc2)oc2c(N3CCCS3(=O)=O)cc(NC3CCNCC3)cc12` [Compound 29, 2-[3-hydroxy-2-(4-hydroxyphenyl)-4-oxo-6-(4-piperidinylamino)-4H-chromen-8-yl]-1λ^6-isothiazolidin-1,1-dione], for which the pIC50 on CDK2/cyclin A was 5.74; against CDK4/cyclin D1 it was 5.77.
As for `O=c1c(O)c(-c2ccc(O)cc2)oc2c(N3CCCS3(=O)=O)cc(NC3CCCCC3)cc12` [Compound 30, 2-[6-(cyclohexylamino)-3-hydroxy-2-(4-hydroxyphenyl)-4-oxo-4H-chromen-8-yl]-1λ^6-isothiazolidin-1,1-dione], the figures for the pIC50 at CDK2/cyclin A and against CDK4/cyclin D1 were 5.25 and 5.80, respectively.
On to `O=c1c(O)c(-c2ccc(O)cc2)oc2c(N3CCCS3(=O)=O)cc(Nc3ccccc3)cc12` [Compound 31, 2-[6-anilino-3-hydroxy-2-(4-hydroxyphenyl)-4-oxo-4H-chromen-8-yl]-1λ^6-isothiazolidin-1,1-dione], for which the pIC50 was 5.85 on CDK2/cyclin A and 5.52 on CDK4/cyclin D1.
Turning to `CNc1cc(N2CCCS2(=O)=O)c2oc(-c3ccc(O)cc3)c(O)c(=O)c2c1` [Compound 32, 2-[3-hydroxy-2-(4-hydroxyphenyl)-6-(methylamino)-4-oxo-4H-chromen-8-yl]-1λ^6-isothiazolidin-1,1-dione], the results for the negative-log IC50 (pIC50) against CDK2/cyclin A and against CDK4/cyclin D1 were 6.65 and 6.27, respectively.
